One series deals with T1, HCMV polymerase (Human cytomegalovirus, UniProt P08546).
T1 construct: made in house; host or cells: SF-9 insect cells infected with recombinant baculovirus
The experiment in a line: HCMV polymerase assay (scintillation proximity assay), original and modified version. It is filed as biochemical. The following applies: SPA; several values per example = repeat determinations, assay version not given; read-out: CMV Polymerase IC50. On the procedure: The HCMV polymerase assay is performed using a scintillation proximity assay (SPA) as described in several references, such as N.D. Cook, et al., Pharmaceutical Manufacturing International, pages 49-53 (1992); K. Takeuchi, Laboratory Practice, September issue (1992); U.S. Pat. No. 4,568,649 (1986); which are incorporated by reference herein. Reactions are performed in 96-well plates. The assay is conducted in 100 μl volume with 5.4 mM HEPES (pH 7.5), 11.7 MM KCl, 4.5 mM MgCl2, 0.36 mg/ml BSA, and 90 nM ^3H-dTTP. Assays are run with and without CHAPS, (3-[(3-Cholamidopropyl)-dimethylammoniol-1-propane-sulfonate) at a final concentration of 2 mM. HCMV polymerase is diluted in enzyme dilution buffer containing 50% glycerol, 250 mM NaCl, 10 mM HEPES (pH 7.5), 100 μg/ml BSA, and 0.01% sodium azide. The HCMV polymerase, which is expressed in recombinant baculovirus-infected SF-9 cells and purified according to literature procedures, is added at 10% (or 10 μl) of the final reaction volume, i.e., 100 μl. Compounds are diluted in 50% DMSO and 10 μl are added to each well. Control wells contain an equivalent concentration of DMSO. Unless noted otherwise, reactions are initiated via the addition of 6 nM biotinylated poly(dA)-oligo(dT) template/primer to reaction mixtures containing the enzyme, substrate, and compounds of interest. Plates are incubated in a 25° C. or 37° C. H2O bath and terminated via the addition of 40 μl/reaction of 0.5 M EDTA (pH 8) per well. Reactions are terminated within the time-frame during which substrate incorporation is linear and varied depending upon the enzyme and conditions used, i.e., 30 min. for HCMV polymerase. Ten (10) μl of streptavidin-SPA beads (20 mg/ml in PBS/10% glycerol) are added following termination of the reaction. Plates are incubated 10 min. at 37° C., then equilibrated to room temperature, and counted on a Packard Topcount. Linear regressions are performed and IC50's are calculated using computer software.
A modified version of the above HCMV polymerase assay is performed as described above, but with the following changes: Compounds are diluted in 100% DMSO until final dilution into assay buffer. In the previous assay, compounds are diluted in 50% DMSO. 4.5 mM dithiotherotol (DTT) is added to the polymerase buffer.

The next series deals with T2, Alpha Polymerase (Homo sapiens, UniProt P09884).
T2 sequence (P09884 1-1462): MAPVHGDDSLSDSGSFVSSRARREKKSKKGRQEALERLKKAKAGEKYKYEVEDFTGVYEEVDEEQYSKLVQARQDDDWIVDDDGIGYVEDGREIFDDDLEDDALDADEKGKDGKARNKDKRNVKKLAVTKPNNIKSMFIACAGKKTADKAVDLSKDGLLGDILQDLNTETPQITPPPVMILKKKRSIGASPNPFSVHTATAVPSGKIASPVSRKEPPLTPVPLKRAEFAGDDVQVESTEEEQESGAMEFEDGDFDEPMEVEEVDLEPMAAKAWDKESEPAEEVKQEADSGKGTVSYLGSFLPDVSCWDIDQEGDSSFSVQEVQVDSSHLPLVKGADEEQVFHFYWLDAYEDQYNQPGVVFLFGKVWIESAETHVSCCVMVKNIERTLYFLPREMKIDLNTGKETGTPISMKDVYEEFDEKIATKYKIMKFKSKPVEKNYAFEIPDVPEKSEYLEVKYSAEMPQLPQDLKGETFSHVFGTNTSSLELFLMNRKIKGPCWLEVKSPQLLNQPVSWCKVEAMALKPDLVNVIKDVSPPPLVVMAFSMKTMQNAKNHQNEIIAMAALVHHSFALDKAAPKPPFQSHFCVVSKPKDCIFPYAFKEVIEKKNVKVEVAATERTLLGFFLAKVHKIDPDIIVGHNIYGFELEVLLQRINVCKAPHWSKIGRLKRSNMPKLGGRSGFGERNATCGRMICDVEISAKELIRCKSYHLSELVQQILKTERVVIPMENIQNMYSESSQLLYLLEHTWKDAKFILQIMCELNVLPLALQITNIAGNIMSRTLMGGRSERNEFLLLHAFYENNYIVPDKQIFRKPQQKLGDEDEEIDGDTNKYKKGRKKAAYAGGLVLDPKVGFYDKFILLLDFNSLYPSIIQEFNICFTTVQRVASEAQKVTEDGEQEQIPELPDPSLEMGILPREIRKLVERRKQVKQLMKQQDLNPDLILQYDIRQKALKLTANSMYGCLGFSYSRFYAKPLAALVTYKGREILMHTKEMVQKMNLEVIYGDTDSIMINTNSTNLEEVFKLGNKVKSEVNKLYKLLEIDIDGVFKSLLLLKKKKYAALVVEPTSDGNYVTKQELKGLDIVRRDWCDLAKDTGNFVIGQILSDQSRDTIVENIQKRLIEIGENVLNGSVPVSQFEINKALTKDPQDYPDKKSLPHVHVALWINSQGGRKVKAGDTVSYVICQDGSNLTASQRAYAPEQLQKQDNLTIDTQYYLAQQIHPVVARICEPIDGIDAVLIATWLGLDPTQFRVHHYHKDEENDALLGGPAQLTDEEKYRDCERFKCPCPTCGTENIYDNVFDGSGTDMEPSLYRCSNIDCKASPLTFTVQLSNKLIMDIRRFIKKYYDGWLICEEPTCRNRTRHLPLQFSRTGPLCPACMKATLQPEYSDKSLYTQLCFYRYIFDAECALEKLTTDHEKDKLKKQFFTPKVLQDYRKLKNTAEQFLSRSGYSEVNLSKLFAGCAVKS
The series is described as follows: Alpha polymerase inhibition (selectivity). It is filed as biochemical.

Several values for one entry are separate records, joined by “and”; a condition that tells them apart may be missing. Equal entries are not always repeated.

T1 sequence (P08546 whole entry): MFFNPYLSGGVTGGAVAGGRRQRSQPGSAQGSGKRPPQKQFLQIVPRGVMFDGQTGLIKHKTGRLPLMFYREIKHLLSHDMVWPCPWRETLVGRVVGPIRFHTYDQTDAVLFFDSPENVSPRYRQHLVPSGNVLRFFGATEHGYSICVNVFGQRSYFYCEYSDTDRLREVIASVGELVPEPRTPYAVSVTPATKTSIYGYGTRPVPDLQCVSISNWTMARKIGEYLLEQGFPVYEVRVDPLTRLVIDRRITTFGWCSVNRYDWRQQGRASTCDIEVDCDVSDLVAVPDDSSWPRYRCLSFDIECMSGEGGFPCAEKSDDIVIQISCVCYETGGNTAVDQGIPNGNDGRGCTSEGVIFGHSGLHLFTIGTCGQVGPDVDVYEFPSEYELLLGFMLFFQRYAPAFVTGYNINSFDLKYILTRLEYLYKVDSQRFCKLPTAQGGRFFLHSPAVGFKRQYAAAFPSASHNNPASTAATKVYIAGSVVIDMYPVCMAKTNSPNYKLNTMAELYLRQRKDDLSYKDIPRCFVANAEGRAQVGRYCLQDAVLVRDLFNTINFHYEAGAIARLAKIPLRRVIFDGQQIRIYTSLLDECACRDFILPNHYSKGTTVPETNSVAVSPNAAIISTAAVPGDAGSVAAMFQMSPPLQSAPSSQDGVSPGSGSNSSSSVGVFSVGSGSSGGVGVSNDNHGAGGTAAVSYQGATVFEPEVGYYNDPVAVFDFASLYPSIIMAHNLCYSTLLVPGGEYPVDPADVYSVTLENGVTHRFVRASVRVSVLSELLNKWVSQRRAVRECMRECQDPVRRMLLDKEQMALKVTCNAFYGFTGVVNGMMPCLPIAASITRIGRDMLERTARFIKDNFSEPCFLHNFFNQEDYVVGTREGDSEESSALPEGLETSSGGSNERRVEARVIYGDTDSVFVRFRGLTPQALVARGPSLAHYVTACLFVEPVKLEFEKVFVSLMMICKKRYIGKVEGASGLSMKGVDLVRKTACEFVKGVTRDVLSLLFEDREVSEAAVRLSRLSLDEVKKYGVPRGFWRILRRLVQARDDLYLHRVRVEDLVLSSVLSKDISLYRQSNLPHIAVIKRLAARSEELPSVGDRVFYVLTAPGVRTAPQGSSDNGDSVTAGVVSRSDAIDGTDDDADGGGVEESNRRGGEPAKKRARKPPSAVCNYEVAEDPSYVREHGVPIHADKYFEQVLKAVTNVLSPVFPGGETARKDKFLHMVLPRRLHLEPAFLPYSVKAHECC

For `CN(Cc1cc2c3c(c1)c(=O)c(C(=O)NCc1ccc(Cl)cc1)cn3CC(=O)N2C)C[C@@H](O)c1cnccn1` [Example 21, N-(4-chlorobenzyl)-9-{[[(2R)-2-hydroxy-2-pyrazin-2-ylethyl](methyl)amino]methyl}-1-methyl-2,7-dioxo-2,3-dihydro-1H,7H-pyrido[1,2,3-de]quinoxaline-6-carboxamide], the melting point was 97 to 98 °C. Besides, the IC50 on HCMV polymerase is 160 nM and 120 nM. The IC50 on Alpha Polymerase was over 10 µM.

In the case of `CN(Cc1cc2c3c(c1)c(=O)c(C(=O)NCc1ccc(Cl)cc1)cn3CC(=O)N2C)CC(O)c1ccc2ccccc2n1` (racemic) [Example 16, rac N-(4-chlorobenzyl)-9-{([2-hydroxy-2-quinolin-2-ylethyl](methyl)amino)methyl 1-1-methyl-2,7-dioxo-2,3-dihydro-1H,7H-pyrido[1,2,3-de]quinoxaline-6-carboxamide], the melting point lay within 173 to 177 °C. The IC50 on HCMV polymerase was 48 nM and 36 nM. The same molecule returned an IC50 against Alpha Polymerase of over 20 µM.

As to `CN(Cc1cc2c3c(c1)c(=O)c(C(=O)NCc1ccc(Cl)cc1)cn3CC(=O)N2C)C[C@@H](O)c1cccnc1` [Example 13, N-(4-chlorobenzyl)-9-{[[(2S)-2-hydroxy-2-pyridin-3-ylethyl](methyl)amino]methyl}-1-methyl-2,7-dioxo-2,3-dihydro-1H,7H-pyrido[1,2,3-de]quinoxaline-6-carboxamide], the melting point was 131 to 135 °C. The IC50 at HCMV polymerase is 150 nM and 76 nM. The IC50 against Alpha Polymerase is over 20 µM.

As for `CN(Cc1cc2c3c(c1)c(=O)c(C(=O)NCc1ccc(Cl)cc1)cn3CC(=O)N2C)C[C@@H](O)c1ccco1` [Example 11, N-(4-chlorobenzyl)-9-{[[(2R)-2-(2-furyl)-2-hydroxyethyl](methyl)amino]methyl}-1-methyl-2,7-dioxo-2,3-dihydro-1H,7H-pyrido[1,2,3-de]quinoxaline-6-carboxamide], the melting point was in the range of 119 to 120 °C. For the same molecule, on HCMV polymerase, the half-inhibitory concentration (IC50) was 110 nM and 46 nM. At Alpha Polymerase, this molecule showed an IC50 of over 20 µM.

`CN(Cc1cc2c3c(c1)c(=O)c(C(=O)NCc1ccc(Cl)cc1)cn3CC(=O)N2C)CC(O)c1csc2ccccc12` (racemic) [Example 15, rac 9-{([2-(1-benzothien-3-yl)-2-hydroxyethyl](methyl)amino)methyl}-N-(4-chlorobenzyl)-1-methyl-2,7-dioxo-2,3-dihydro-1H,7H-pyrido[1,2,3-de]quinoxaline-6-carboxamide] came in with a melting point of 147 to 149 °C. Besides, at HCMV polymerase, the IC50 is 110 nM and 86 nM. This molecule returned an IC50 on Alpha Polymerase of over 20 µM.

In turn, `CN(Cc1cc2c3c(c1)c(=O)c(C(=O)NCc1ccc(F)cc1)cn3CC(=O)N2C)CC(O)c1cc2ccccc2o1` (racemic) [Example 33, rac 9-{[[2-(1-benzofuran-2-yl)-2-hydroxyethyl](methyl)amino]methyl}-N-(4-fluorobenzyl)-1-methyl-2,7-dioxo-2,3-dihydro-1H,7H-pyrido[1,2,3-de]quinoxaline-6-carboxamide] registered a melting point of 161 to 163 °C. Besides, the IC50 on HCMV polymerase amounted to 32 nM. This molecule also gave an IC50 on Alpha Polymerase of 4.39 µM.

For the molecule `CN(Cc1cc2c3c(c1)c(=O)c(C(=O)NCc1ccc(Cl)cc1)cn3CC(=O)N2C)CC(O)c1cc2ccccc2o1` (racemic) [Example 3, rac 9-{([2-(1-benzofuran-2-yl)-2-hydroxyethyl](methyl)amino)methyl}-N-(4-chlorobenzyl)-1-methyl-2,7-dioxo-2,3-dihydro-1H,7H-pyrido[1,2,3-de]quinoxaline-6-carboxamide], the IC50 at HCMV polymerase was 8.6 nM and 7.8 nM and 7.2 nM; against Alpha Polymerase, over 5 µM.

Regarding `CN(Cc1cc2c3c(c1)c(=O)c(C(=O)NCc1ccc(Cl)cc1)cn3CC(=O)N2C)C[C@@H](O)c1ccccc1` [Example 12, N-(4-chlorobenzyl)-9-{[[(2S)-2-hydroxy-2-phenylethyl](methyl)amino]methyl}-1-methyl-2,7-dioxo-2,3-dihydro-1H,7H-pyrido[1,2,3-de]quinoxaline-6-carboxamide], the IC50 against Alpha Polymerase is at least 20 µM.
